Results on 2 compounds are retold here after patent US12082933B2, “Methods of using brain temporal dynamics” (priority 2016, dated 2024).

For test [1] the following is noted: six months of treatment; specifically in younger adults; cited from earlier work.
Test [2] can be described thus: Open-label 8-week escitalopram treatment trial, depressive symptoms by MADRS. The conditions noted are these: escitalopram 10-20 mg daily, week 8. Format: in vivo, human. The source says: 95 participants were included in this study. Data were collected as part of the CAN-BIND 1 project (Lam et al., 2016). Participants were outpatients aged 18-60 years of age, and met DSM-IV-TR (2000) criteria for major depressive episode (MDE) in MDD, confirmed by the Mini international Neuropsychiatric inventory (MINI) (Sheehan et al., 1998). Data were gathered across four study sites: University Health Network, Centre for Addiction and Mental Health in Toronto, Queen's University in Kingston, Ontario, Canada, and University of British Columbia in Vancouver, British Columbia, Canada. Study procedures were approved by research ethics institutional review boards at each site. All participants signed written informed consent prior to participation. At study enrollment, all participants were experiencing a MDE duration≥3 months with a Montgomery Asberg Depression Rating Scale (MAD RS) score≥24. All participants were free of psychotropic medications for at least 5 half-lives before baseline Visit 1. Participants were excluded if they had: 1) any Axis I diagnosis other than MDD, that was considered the primary diagnosis; 2) diagnosis of Bipolar Disorder Type I or II; 3) a significant Axis II diagnosis (borderline, antisocial); 4) high suicidal risk, 5) substance dependence/abuse in the past 6 months; 6) presence of significant neurological disorders, 7) head trauma, or 8) other unstable medical condition. Exclusionary criteria related to the medications included: having failed four or more adequate pharmacological interventions, having started psychological treatment within the past 3 months with the intent of continuing the treatment, previously having failed escitalopram treatment or showing intolerance to escitalopram, and being at risk for hypomanic switch (i.e. with a history of antidepressant induced hypomania). In addition, female participants who were pregnant or breastfeeding were excluded. […] The study period was eight weeks and participants were assessed with MADRS every 2 weeks starting from before administration of study medication (baseline). […]

Test [3] can be described thus: Resting-state eyes closed EEG multi-scale entropy (MSE) during escitalopram treatment. Format: in vivo, human.
Protocol: Subjects were instructed to sit quietly in a testing room, while 8 minute of resting-state eyes closed EEG were recorded. Subjects were instructed to remain still, reduce eye blinks or movement to a minimum, and refrain from falling asleep.
Data were imported into MATLAB (The Math Works. Inc. Natick, MA, USA) for preprocessing. The open source EEGLAB toolbox version 12.0 (Delorme and Makeig, 2004) were used for data import. The EEG signals were epoched into segments of two seconds duration. Then a standardized custom-made and stream-lined open source software develop by our team, EEGERP toolbox (http:www.tmseeg.com/multisiteprojects), was used to preprocess the data in 6 steps as described elsewhere (Farzan et al., 2017). All data were brought down to sampling rate of 512 Hz for consistency across all sites, and average re-referenced in the final preprocessing step.
MSE was examined identical to a prior publication (Farzan et al., Brain 2016). […] First, for a given time series {xi,x2, . . . xN}, the multiple coarse-grained time series {y1^(τ), y2^(τ), . . . , yN^(τ)} at scale factor τ were calculated by averaging the data points within non-overlapping windows of increasing length τ. Each element of the coarse-grained time series yj^(τ), was calculated according to the equation:
[formula] […] Second, the degree of predictability was measured for each of the multiple coarse-grained time series {y1^(τ), y2^(τ), . . . , yN^(τ)} using SampleEn. SampleEn was calculated according to the equation: SampleEn(r,m,M)=−In(C(m+1)/C(m)) (2) where C(m) is the total number of pairs of in consecutive similar data points, C(m+1) is the total number of pairs of m+1 consecutive similar data points in the multiple coarse-grained time series. SampleEn quantifies the variability of time series by estimating the predictability of amplitude patterns across a time series. […] MSE was calculated for a 30 second continuous epoch.” […]

For `CN1CCN2c3ncccc3Cc3ccccc3C2C1` (stereo not shown) [mirtazapine], in test [1], the “Effect on excess complexity (Lempel-Ziv Complexity) in depression” value is “normalized the excess complexity in depression”.
As to `CN(C)CCC[C@@]1(c2ccc(F)cc2)OCc2cc(C#N)ccc21` [Escitalopram], the results for the “MADRS Post Week8 (mean +/− std)” value in test [2] (All Groups (n = 95)), in test [2] (Non-responders (n = 50)) and in test [2] (Responders (n = 45)) were 15.4 +/− 9.7, 22.3 +/− 7.18 and 7.62 +/− 5.24, respectively. Besides, the “Change in MSE pre (baseline) to post treatment (week 8)” value in test [3] (non-responders) was “No significant changes”; in test [3] (responders, fronto-parietal brain regions, cluster p=0.09) it was “reduction of MSE in fine time-scales”. In addition, in test [3] (non-responders, scale factor>18, lateral frontal, fronto-temporal, parieto-occipital regions, clusters p<0.05), the “Change in MSE at week 2 relative to pre treatment (baseline)” value is reported as “reduction of MSE in coarse time-scales”.
